From patent publication US4545982A, “Pyranone compounds and skin-lightening cosmetic preparations or local demelanizing agents containing the same” (Yakurigaku Chuo Kenkyusho, priority 1982, dated 1985)

Experiments:
[1] = system: triturated solution of a shaved skin of a rat; assay: Enzymatic hydrolysis of acyl compounds by rat skin homogenate (ferric chloride coloring); type: in vitro ADME; parameters: key: +: light wine color; ++: deep wine color; +++: dark wine color; --: no coloration; ±: indistinct coloration; conditions: 0.05M substrate emulsion, 37° C., 1 hr
Description: (§1) (1) Substrate solution: A solution containing 2% polyvinyl alcohol in M/15 phosphate buffer solution (pH 7.0) was prepared. The respective acyl compounds were added to the solution in a concentration of 0.05M and homogenized in a homogenizer to give emulsions.
(§2) (2) Enzymatic solution: 30 mg of purified bacterial lipase was dissolved in 100 ml of water. As an organic crude enzymatic solution, there was used a triturated solution of a shaved skin and pancreas of a rat weighing about 200 g.
(§3) (3) The compositions were as follows:
(§4) The composition was incubated at 37° C. for 1 hr, and the reaction was stopped by 5% metaphosphoric acid. 0.5 ml of ferric chloride reagent (0.1% aqueous solution) was added to 5 ml of the supernatant liquid after the centrifugal precipitation to observe the coloring (wine color) thereof.

[2] = system: triturated solution of pancreas of a rat; assay: Enzymatic hydrolysis of acyl compounds by rat pancreas homogenate (ferric chloride coloring); type: in vitro ADME; parameters: key: +: light wine color; ++: deep wine color; +++: dark wine color; --: no coloration; ±: indistinct coloration; conditions: 0.05M substrate emulsion, 37° C., 1 hr
Description: as §1, §2, §3, §4

[3] = system: purified bacterial lipase; assay: Enzymatic hydrolysis of acyl compounds by purified bacterial lipase (ferric chloride coloring); type: in vitro ADME; parameters: key: +: light wine color; ++: deep wine color; +++: dark wine color; --: no coloration; ±: indistinct coloration; conditions: 0.05M substrate emulsion, 37° C., 1 hr
Description: as §1, §2, §3, §4

tyrosinase [4] = assay: Inhibitory action of pretreated (hydrolyzed) 3-acyloxy-4(H)-pyran-4-one on tyrosinase activity; type: biochemical; conditions: 1.0% solution pretreated by hydrolysis at pH 11.0 or 2.0, 70° C., 30 minutes; L-tyrosine, pH 6.8, 37° C., absorbance at 475 mμ
Description: 3-Acetoxy-4(H)-pyran-4-one was dissolved in ethanol, and the solution was adjusted to pH 6.0 with succinic acid or potassium carbonate to give a 1.0% 3-acetoxy-4(H)-pyran-4-one solution.
As the pretreatment, two samples (each 10 ml) were taken from the solution. To the two samples were added 1% Na2 CO3 and 0.01% HCl to adjust the pH to 11.0 and 2.0, respectively. The adjusted samples were hydrolyzed by heating at 70° C. with stirring for 30 minutes.
To a test tube were added 1 ml of a L-tyrosine solution (0.3 mg/ml), 1 ml of McIlvaine's buffer solution (pH 6.8) and 0.9 ml of the 3-acetoxy-4(H)-pyran-4-one solution pretreated as described above. The mixture was incubated at 37° C. for 10 minutes, and 0.1 ml of a tyrosinase solution (1 mg/ml) was added thereto and stirred thoroughly. The absorbance at 475 mμ was immediately determined by a spectrophotometer with time. On the other hand, the absorbance of water was determined similarly with time as a control.

melasma on human face = assay: Action on the melanization in the human skin (melasma, ointment application); type: in vivo; conditions: 3 times a day, 3 months, 10 volunteers
Description: Action of 3-hydroxy-4(H)-pyran-4-one and acyl derivatives thereof on the melanization in the human skin.
The test substance was mixed and dissolved in a hydrophilic ointment according to the Japanese Pharmacopoeia and applied to a melasma on one side of each human face 3 times a day. In the control, only the hydrophilic ointment was applied to a melasma on the other side of the human face in the similar way.

Reducing action = type: physicochemical
tyrosinase [5] = assay: Inhibitory action on tyrosinase activity (absorbance at 475 mμ with time); type: biochemical; conditions: 40 μg in 0.9 ml test solution, L-tyrosine, pH 6.8, 37° C., absorbance at 475 mμ with time (FIG. 1)
Description: To a test tube were added 0.9 ml of a test solution, containing 40 μg of pyranone described above, which solution was obtained by adding the pyranone to 30% aqueous solution of propylene glycol; 1 ml of L-tyrosine solution (0.3 mg/ml); and 1 ml McIlvaine's buffer solution (pH 6.8), and the mixture was incubated at 37° C. for 10 minutes. 0.1 ml of a tyrosinase solution (1 mg/ml) was then added to the incubated mixture and stirred thoroughly. The absorbance at 475 mμ of the mixture was immediately measured by a spectrophotometer with time. As a control, the absorbance at 475 mμ of a 30% aqueous solution of propylene glycol instead of the above test solution was measured with time.
FIG. 1 is a graph to illustrate the effect described above, and agreement of the line showing the absorbance in the case of 3-hydroxy-4(H)-pyran-4-one with the abscissa (time) of the graph clearly indicates the remarkable effect of the 3-hydroxy-4(H)-pyran-4-one.

[6] = Germicidal action and antibiotic-like action

SMILES	Ratio of formation of 3-hydroxy-4(H)--pyran-4-one, Homogenate Rat's skin [1]	Ratio of formation of 3-hydroxy-4(H)--pyran-4-one, Homogenate Rat's pancreas [2]	Ratio of formation of 3-hydroxy-4(H)--pyran-4-one, Bacterial lipase (purified) [3]	Inhibitory action on tyrosinase activity (tyrosinase [4])	Results: Effective (number of volunteers) (melasma on human face; 0.5% in hydrophilic ointment)	Results: Ineffective (number of volunteers) (melasma on human face; 0.5% in hydrophilic ointment)	Results: Remarkably effective (number of volunteers) (melasma on human face; 0.5% in hydrophilic ointment)	Results: Effective (number of volunteers) (melasma on human face; 1% in hydrophilic ointment)	Results: Ineffective (number of volunteers) (melasma on human face; 1% in hydrophilic ointment)	Results: Remarkably effective (number of volunteers) (melasma on human face; 1% in hydrophilic ointment)	Results: Effective (number of volunteers) (melasma on human face; 2% in hydrophilic ointment)	Results: Ineffective (number of volunteers) (melasma on human face; 2% in hydrophilic ointment)	Results: Remarkably effective (number of volunteers) (melasma on human face; 2% in hydrophilic ointment)	Mutagenicity (Mutagenicity)	Reducing action (Reducing action)	Inhibitory action on tyrosinase activity (tyrosinase [5])	Germicidal action and antibiotic-like action [6]
CC(=O)Oc1coccc1=O [3-acetoxy-4(H)-pyran-4-one, 3-Acetoxy-4(H)-pyran-4-one]	+++	+++	+	Results similar to those of the 3-hydroxy-4(H)-pyran-4-one	–	–	–	–	–	–	–	–	–	–	–	–	–
CCCCCCCCCCCCCCCC(=O)Oc1coccc1=O [3-palmitoyloxy-4(H)--pyran-4-one, 3-palmitoyloxy-4(H)-pyran-4-one]	++	++	±	–	2	3	5	4	0	6	2	0	8	–	–	–	–
O=c1ccocc1O [3-hydroxy-4(H)-pyran-4-one]	–	–	–	–	3	2	5	2	0	8	–	–	–	no mutagenicity	weak reducing action	stronger inhibitory action on the tyrosinase activity than 3-hydroxy-chromone (chromonol) and kojic acid, and a far stronger inhibitory action than vitamin C	deficient in germicidal action and antibiotic-like action
